# Measured values published in PubChem BioAssay (NCI).
#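 Test compounds were applied to cells in 96-well plates for 48 hours at 5 doses. GI50 = concentration required for 50% inhibition of growth. TGI is the concentration that stops growth completely.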
# Legend:
# Experiment in all cases: growth of human tumour cells (NCI), 48 h
# SNB-75 CNS = tested on: SNB-75 CNS
# PC-3 prostate = tested on: PC-3 prostate
# SF-539 CNS = tested on: SF-539 CNS
# CAKI-1 renal = tested on: CAKI-1 renal
# NCI/ADR-RES ovarian = tested on: NCI/ADR-RES ovarian
# SK-MEL-28 melanoma = tested on: SK-MEL-28 melanoma
# A498 renal = tested on: A498 renal
# KM12 colon = tested on: KM12 colon
# COLO 205 colon = tested on: COLO 205 colon
# HCT-15 colon = tested on: HCT-15 colon
# HT29 colon = tested on: HT29 colon
# OVCAR-4 ovarian = tested on: OVCAR-4 ovarian
# ACHN renal = tested on: ACHN renal
# SW-620 colon = tested on: SW-620 colon
# OVCAR-5 ovarian = tested on: OVCAR-5 ovarian
# UO-31 renal = tested on: UO-31 renal
# SK-OV-3 ovarian = tested on: SK-OV-3 ovarian
# HOP-62 NSCLC = tested on: HOP-62 NSCLC
# LOX IMVI melanoma = tested on: LOX IMVI melanoma
# A549 NSCLC = tested on: A549 NSCLC
# NCI-H23 lung = tested on: NCI-H23 lung
# K-562 leukemia = tested on: K-562 leukemia
# RXF 393 renal = tested on: RXF 393 renal
# 786-0 renal = tested on: 786-0 renal
# MDA-MB-435 = tested on: MDA-MB-435
# HOP-92 NSCLC = tested on: HOP-92 NSCLC
# OVCAR-3 ovarian = tested on: OVCAR-3 ovarian
# SK-MEL-5 melanoma = tested on: SK-MEL-5 melanoma
# SK-MEL-2 melanoma = tested on: SK-MEL-2 melanoma
# T-47D breast = tested on: T-47D breast
# IGROV1 ovarian = tested on: IGROV1 ovarian
# NCI-H460 lung = tested on: NCI-H460 lung
# OVCAR-8 ovarian = tested on: OVCAR-8 ovarian
# SNB-19 CNS = tested on: SNB-19 CNS
# U251 CNS = tested on: U251 CNS
# CCRF-CEM leukemia = tested on: CCRF-CEM leukemia
# HL-60(TB) leukemia = tested on: HL-60(TB) leukemia
# SR leukemia = tested on: SR leukemia
# RPMI-8226 leukemia = tested on: RPMI-8226 leukemia
# DU-145 prostate = tested on: DU-145 prostate
# NCI-H226 lung = tested on: NCI-H226 lung
# HCT-116 colon = tested on: HCT-116 colon
# HCC-2998 colon = tested on: HCC-2998 colon
# UACC-257 melanoma = tested on: UACC-257 melanoma
# SF-268 CNS = tested on: SF-268 CNS
# HS 578T breast = tested on: HS 578T breast
# UACC-62 melanoma = tested on: UACC-62 melanoma
# BT-549 breast = tested on: BT-549 breast
# M14 melanoma = tested on: M14 melanoma
# MOLT-4 leukemia = tested on: MOLT-4 leukemia
# NCI-H522 lung = tested on: NCI-H522 lung
# MDA-MB-231 breast = tested on: MDA-MB-231 breast
# SF-295 CNS = tested on: SF-295 CNS
# MALME-3M melanoma = tested on: MALME-3M melanoma
# TK-10 renal = tested on: TK-10 renal
# MCF7 breast = tested on: MCF7 breast
# EKVX NSCLC = tested on: EKVX NSCLC
# SN12C renal = tested on: SN12C renal
smiles,measurement,setting,value
Cc1cn2c(/C=N/N=C(N)N)c(-c3ccc([N+](=O)[O-])cc3)nc2s1,TGI,SNB-75 CNS,1.87 µM
same,TGI,PC-3 prostate,2.73 µM
same,TGI,SF-539 CNS,3.05 µM
same,TGI,CAKI-1 renal,6.57 µM
same,TGI,NCI/ADR-RES ovarian,> 100 µM
same,TGI,SK-MEL-28 melanoma,3.05 µM
same,TGI,A498 renal,3.01 µM
same,TGI,KM12 colon,1.72 µM
same,TGI,COLO 205 colon,1.97 µM
same,TGI,HCT-15 colon,2.77 µM
same,TGI,HT29 colon,2.67 µM
same,TGI,OVCAR-4 ovarian,0.316 µM
same,TGI,ACHN renal,2.82 µM
same,TGI,SW-620 colon,0.331 µM
same,TGI,OVCAR-5 ovarian,2.14 µM
same,TGI,UO-31 renal,3.37 µM
same,TGI,SK-OV-3 ovarian,3.14 µM
COc1cc2c(cc1NC(=O)c1ccccc1)c1c(n2S(=O)(=O)c2ccccc2)CCN(S(=O)(=O)c2ccccc2)C1,TGI,SNB-75 CNS,> 100 µM
same,TGI,HOP-62 NSCLC,> 100 µM
same,TGI,LOX IMVI melanoma,> 100 µM
same,TGI,PC-3 prostate,> 100 µM
same,TGI,A549 NSCLC,> 100 µM
same,TGI,NCI-H23 lung,> 100 µM
same,TGI,K-562 leukemia,> 100 µM
same,TGI,NCI/ADR-RES ovarian,> 100 µM
same,TGI,SK-MEL-28 melanoma,> 100 µM
same,TGI,A498 renal,> 100 µM
same,TGI,RXF 393 renal,> 100 µM
same,TGI,786-0 renal,> 100 µM
same,TGI,MDA-MB-435,> 100 µM
same,TGI,KM12 colon,> 100 µM
same,TGI,HOP-92 NSCLC,> 100 µM
same,TGI,OVCAR-3 ovarian,> 100 µM
same,TGI,SK-MEL-5 melanoma,> 100 µM
same,TGI,SK-MEL-2 melanoma,> 100 µM
same,TGI,T-47D breast,> 100 µM
same,TGI,IGROV1 ovarian,> 100 µM
same,TGI,NCI-H460 lung,> 100 µM
same,TGI,OVCAR-8 ovarian,> 100 µM
same,TGI,COLO 205 colon,> 100 µM
same,TGI,HCT-15 colon,> 100 µM
same,TGI,HT29 colon,> 100 µM
same,TGI,SNB-19 CNS,> 100 µM
same,TGI,U251 CNS,> 100 µM
same,TGI,OVCAR-4 ovarian,> 100 µM
same,TGI,CCRF-CEM leukemia,> 100 µM
same,TGI,ACHN renal,> 100 µM
same,TGI,HL-60(TB) leukemia,> 100 µM
same,TGI,SW-620 colon,> 100 µM
same,TGI,OVCAR-5 ovarian,> 100 µM
same,TGI,SR leukemia,> 100 µM
same,TGI,RPMI-8226 leukemia,> 100 µM
same,TGI,DU-145 prostate,> 100 µM
same,TGI,NCI-H226 lung,> 100 µM
same,TGI,HCT-116 colon,> 100 µM
same,TGI,HCC-2998 colon,> 100 µM
same,TGI,UACC-257 melanoma,> 100 µM
same,TGI,SF-268 CNS,> 100 µM
same,TGI,HS 578T breast,> 100 µM
same,TGI,UACC-62 melanoma,> 100 µM
same,TGI,BT-549 breast,> 100 µM
same,TGI,SK-OV-3 ovarian,> 100 µM
same,TGI,M14 melanoma,> 100 µM
same,TGI,MOLT-4 leukemia,> 100 µM
COc1cc(/C=C2\CC3C4CCC5=CC(=O)CC[C@]5(C)C4CC[C@]3(C)C2=O)ccc1OCCN1CCCC1 (stereo partly specified),GI50,SNB-75 CNS,3.47 µM
same,TGI,SNB-75 CNS,11.1 µM
same,GI50,NCI-H522 lung,2.33 µM
same,TGI,NCI-H522 lung,5.45 µM
same,GI50,HOP-62 NSCLC,2.33 µM
same,TGI,HOP-62 NSCLC,6.11 µM
same,GI50,MDA-MB-231 breast,2.01 µM
same,TGI,MDA-MB-231 breast,5.1 µM
same,GI50,LOX IMVI melanoma,2.01 µM
same,TGI,LOX IMVI melanoma,3.97 µM
same,GI50,PC-3 prostate,2.35 µM
same,TGI,PC-3 prostate,8.31 µM
same,GI50,SF-539 CNS,1.78 µM
same,TGI,SF-539 CNS,3.67 µM
same,GI50,A549 NSCLC,4.45 µM
same,TGI,A549 NSCLC,> 100 µM
same,GI50,NCI-H23 lung,3.31 µM
same,TGI,NCI-H23 lung,13.4 µM
same,GI50,K-562 leukemia,0.489 µM
same,TGI,K-562 leukemia,1.53 µM
same,GI50,CAKI-1 renal,2.89 µM
same,TGI,CAKI-1 renal,10.5 µM
same,GI50,NCI/ADR-RES ovarian,2.45 µM
same,TGI,NCI/ADR-RES ovarian,6.51 µM
same,GI50,SK-MEL-28 melanoma,2.7 µM
same,TGI,SK-MEL-28 melanoma,8.11 µM
same,GI50,A498 renal,5.05 µM
same,TGI,A498 renal,10.6 µM
same,GI50,SF-295 CNS,2.62 µM
same,TGI,SF-295 CNS,7.58 µM
same,GI50,RXF 393 renal,2.24 µM
same,TGI,RXF 393 renal,5.41 µM
same,GI50,786-0 renal,1.22 µM
same,TGI,786-0 renal,2.91 µM
same,GI50,MDA-MB-435,2.15 µM
same,TGI,MDA-MB-435,4.86 µM
same,GI50,MALME-3M melanoma,0.645 µM
same,TGI,MALME-3M melanoma,1.93 µM
same,GI50,KM12 colon,1.92 µM
same,TGI,KM12 colon,4.77 µM
same,GI50,TK-10 renal,1.51 µM
same,TGI,TK-10 renal,3.92 µM
same,GI50,HOP-92 NSCLC,1.41 µM
same,TGI,HOP-92 NSCLC,3.87 µM
same,GI50,MCF7 breast,4.07 µM
same,TGI,MCF7 breast,> 45.3 µM
same,GI50,OVCAR-3 ovarian,2.37 µM
same,TGI,OVCAR-3 ovarian,6.01 µM
same,GI50,SK-MEL-5 melanoma,1.8 µM
same,TGI,SK-MEL-5 melanoma,3.5 µM
same,GI50,SK-MEL-2 melanoma,4.21 µM
same,TGI,SK-MEL-2 melanoma,14.8 µM
same,GI50,T-47D breast,3.29 µM
same,TGI,T-47D breast,9.21 µM
same,GI50,IGROV1 ovarian,2.33 µM
same,TGI,IGROV1 ovarian,5.73 µM
same,GI50,NCI-H460 lung,3.57 µM
same,TGI,NCI-H460 lung,> 37.5 µM
same,GI50,OVCAR-8 ovarian,3.4 µM
same,TGI,OVCAR-8 ovarian,13.5 µM
same,GI50,COLO 205 colon,2.04 µM
same,TGI,COLO 205 colon,4.91 µM
same,GI50,EKVX NSCLC,3.98 µM
same,TGI,EKVX NSCLC,17.3 µM
same,GI50,HCT-15 colon,2.76 µM
same,TGI,HCT-15 colon,10.7 µM
same,GI50,HT29 colon,2.5 µM
same,TGI,HT29 colon,> 28.5 µM
same,GI50,SNB-19 CNS,4.16 µM
same,TGI,SNB-19 CNS,18.8 µM
same,GI50,U251 CNS,2.86 µM
same,TGI,U251 CNS,10.1 µM
same,GI50,OVCAR-4 ovarian,3.94 µM
same,TGI,OVCAR-4 ovarian,15.1 µM
same,GI50,CCRF-CEM leukemia,1.12 µM
same,TGI,CCRF-CEM leukemia,4.35 µM
same,GI50,ACHN renal,2.94 µM
same,TGI,ACHN renal,9.16 µM
same,GI50,SW-620 colon,3.09 µM
same,TGI,SW-620 colon,11.5 µM
same,GI50,OVCAR-5 ovarian,2.64 µM
same,TGI,OVCAR-5 ovarian,8.26 µM
same,GI50,RPMI-8226 leukemia,0.202 µM
same,TGI,RPMI-8226 leukemia,0.889 µM
same,GI50,DU-145 prostate,3.76 µM
same,TGI,DU-145 prostate,16.8 µM
same,GI50,NCI-H226 lung,1.81 µM
same,TGI,NCI-H226 lung,7.08 µM
same,GI50,HCT-116 colon,1.41 µM
same,TGI,HCT-116 colon,3.79 µM
same,GI50,HCC-2998 colon,1.85 µM
same,TGI,HCC-2998 colon,3.89 µM
same,GI50,UACC-257 melanoma,2.5 µM
same,TGI,UACC-257 melanoma,6.15 µM
same,GI50,SF-268 CNS,3.41 µM
same,TGI,SF-268 CNS,19.4 µM
same,GI50,HS 578T breast,3.22 µM
same,TGI,HS 578T breast,8.87 µM
same,GI50,UACC-62 melanoma,2.06 µM
same,TGI,UACC-62 melanoma,5.02 µM
same,GI50,BT-549 breast,8.44 µM
same,TGI,BT-549 breast,23.3 µM
same,GI50,UO-31 renal,1.68 µM
same,TGI,UO-31 renal,3.38 µM
same,GI50,SK-OV-3 ovarian,4.56 µM
same,TGI,SK-OV-3 ovarian,16.8 µM
same,GI50,M14 melanoma,1.67 µM
same,TGI,M14 melanoma,3.39 µM
same,GI50,SN12C renal,3.28 µM
same,TGI,SN12C renal,9.18 µM
same,GI50,MOLT-4 leukemia,0.689 µM
same,TGI,MOLT-4 leukemia,1.84 µM
